Reference: patent publication US20100063032A1, “SUBSTITUTED PYRIDO[2,3-D]PYRIMIDINE DERIVATIVES AS CANNABINOID-1 RECEPTOR MODULATORS” (priority 2007, published 2010)

Legend:
[1] = molecular target: recombinant human CB1 receptor (Homo sapiens, UniProt P21554); assay: Cannabinoid Receptor-1 (CB1) Binding Assay ([3H]CP-55940 displacement); settings: recombinant human CB1 in CHO cell membranes, 0.6 nM [3H]CP-55940
Protocol: Binding affinity determination is based on recombinant human CB1 receptor expressed in Chinese Hamster Ovary (CHO) cells (Felder et al, Mol. Pharmacol. 48: 443-450, 1995). Total assay volume is 250 μl (240 μl CB1 receptor membrane solution plus 5 μl test compound solution plus 5 μl [3H]CP-55940 solution). Final concentration of [3H]CP-55940 is 0.6 nM. Binding buffer contains 50 mM Tris-HCl, pH 7.4, 2.5 mM EDTA, 5 mM MgCl28, 0.5 mg/mL fatty acid free bovine serum albumin and protease inhibitors (Cat#P8340, from Sigma). To initiate the binding reaction, 5 μl of radioligand solution is added, the mixture is incubated with gentle shaking on a shaker for 1.5 h at 30° C. The binding is terminated by using 96-well harvester and filtering through GF/C filter presoaked in 0.05% polyethylenimine. The bound radiolabel is quantitated using scintillation counter. Apparent binding affinities for various compounds are calculated from IC50 values (DeBlasi et al., Trends Pharmacol Sci 10: 227-229, 1989).

[2] = molecular target: recombinant human CB1 receptor expressed in CHO cells (Homo sapiens, UniProt P21554); assay: Cannabinoid Receptor-1 (CB1) Functional Activity Assay (intracellular cAMP, forskolin); type: cell-based; settings: for EC50: cAMP level with forskolin; for functional mode at CB1 receptor: cAMP, Biological Example 3
recombinant human CB1 receptor expressed in CHO cells, sequence (P21554 whole entry): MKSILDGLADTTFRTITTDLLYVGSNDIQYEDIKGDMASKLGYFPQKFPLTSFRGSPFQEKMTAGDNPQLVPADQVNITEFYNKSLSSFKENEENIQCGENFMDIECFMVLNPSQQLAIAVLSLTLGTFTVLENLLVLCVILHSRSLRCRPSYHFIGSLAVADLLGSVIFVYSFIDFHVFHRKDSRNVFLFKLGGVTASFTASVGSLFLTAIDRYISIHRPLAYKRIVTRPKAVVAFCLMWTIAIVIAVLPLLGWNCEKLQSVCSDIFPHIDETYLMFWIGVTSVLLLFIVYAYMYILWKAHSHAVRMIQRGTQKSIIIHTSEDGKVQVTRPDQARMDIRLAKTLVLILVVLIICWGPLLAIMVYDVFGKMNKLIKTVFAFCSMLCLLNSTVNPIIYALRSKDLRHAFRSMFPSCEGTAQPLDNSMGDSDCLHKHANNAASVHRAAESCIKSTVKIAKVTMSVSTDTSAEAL
Protocol: The functional activation of CB1 receptor is based on recombinant human CB1 receptor expressed in CHO cells (Felder et al, Mol. Pharmacol. 48: 443-450, 1995). To determine the agonist activity or inverse agonist activity of any test compound, 50 ul of CB1-CHO cell suspension are mixed with test compound and 70 ul assay buffer containing 0.34 mM 3-isobutyl-1-methylxanthine and 5.1 uM of forskolin in 96-well plates. The assay buffer is comprised of Earle's Balanced Salt Solution supplemented with 5 mM MgCl2, 1 mM glutamine, 10 mM HEPES, and 1 mg/mL bovine serum albumin. The mixture is incubated at room temperature for 30 minutes, and terminated by adding 30 ul/well of 0.5M HCl. The total intracellular cAMP level is quantitated using the New England Nuclear Flashplate and cAMP radioimmunoassay kit.
To determine the antagonist activity of test compound, the reaction mixture also contains 0.5 nM of the agonist CP55940 (or 50 nM of methanandamide), and the reversal of the CP55940 (or methanandamide) effect is quantitated with increasing concentration of the test compound. Intracellular cAMP is determined as described above. An IC50 value for the test compound is calculated from the titration curve.
Alternatively, a series of dose response curves for the agonist CP55940 (or methanandamide) is performed with increasing concentration of the test compound in each of the dose response curves, and a Schild analysis is carried to calculate the Kb value which is an estimation of test compound binding affinity.

recombinant human CB1 receptor, sequence (P21554 whole entry): as above

IC50 [1] | EC50 [2] | functional mode at CB1 receptor [2] | Structure (SMILES)
11 nM | < 15 nM | functional inverse agonists | CC(C)(C)c1nc(N)c2cc(-c3ccc(Cl)cc3)c(-c3ccc(Cl)cc3Cl)nc2n1 [Example 3, 2-Tert-butyl-6-(4-chlorophenyl)-7-(2,4-dichlorophenyl)pyrido[2,3-d]pyrimidin-4-amine]
7 nM | < 15 nM | functional inverse agonists | CC(C)(C)c1nc2nc(-c3ccccc3Cl)c(-c3ccc(Cl)cc3)cc2c(=O)[nH]1 [Example 11, 2-Tert-butyl-7-(2-chlorophenyl)-6-(4-chlorophenyl)pyrido[2,3-d]pyrimidin-4(3H)-one]
10 nM | < 15 nM | functional inverse agonists | CC(C)(C)c1nc2nc(-c3ccc(-c4cn[nH]c4)cc3Cl)c(-c3ccc(Cl)cc3)cc2c(=O)[nH]1 [Example 25, 2-Tert-butyl-6-(4-chlorophenyl)-7-[2-chloro-4-(1H-pyrazol-4-yl)phenyl]pyrido[2,3-d]pyrimidin-4(3H)-one]
3 nM | < 15 nM | functional inverse agonists | CC(C)(C)Nc1nc(C(C)(C)C)nc2nc(-c3ccccc3Cl)c(-c3ccc(Cl)cc3)cc12 [Example 48, N,2-Di-tert-butyl-7-(2-chlorophenyl)-6-(4-chlorophenyl)pyrido[2,3-d]pyrimidin-4-amine]
2 nM | < 15 nM | functional inverse agonists | CC(C)(C)c1nc(NCC(F)(F)F)c2cc(-c3ccc(Br)cc3)c(-c3ccccc3Cl)nc2n1 [Example 58, 6-(4-Bromophenyl)-2-tert-butyl-7-(2-chlorophenyl)-N-(2,2,2-trifluoroethyl)pyrido[2,3-d]pyrimidin-4-amine]
4 nM | < 15 nM | functional inverse agonists | Cn1c(-c2ccc(Cl)cc2)nc2nc(-c3ccccc3Cl)c(-c3ccc(Cl)cc3)cc2c1=O [Example 60, 7-(2-Chlorophenyl)-2,6-bis(4-chlorophenyl)-3-methylpyrido[2,3-d]pyrimidin-4(3H)-one]
2 nM | < 15 nM | functional inverse agonists | CC(C)(C)c1nc(C#N)c2cc(-c3ccc(C#N)cc3)c(-c3ccccc3Cl)nc2n1 [Example 69, 2-Tert-butyl-7-(2-chlorophenyl)-6-(4-cyanophenyl)pyrido[2,3-d]pyrimidine-4-carbonitrile]
0.6 nM | < 15 nM | functional inverse agonists | CC(C)(C)c1nc(-c2ccc(F)cc2)c2cc(-c3ccc(Cl)cc3)c(-c3ccccc3Cl)nc2n1 [Example 72, 2-Tert-butyl-7-(2-chlorophenyl)-6-(4-chlorophenyl)-4-(4-fluorophenyl)pyrido[2,3-d]pyrimidine]
